Results on 23 compounds are retold here after ChEMBL document CHEMBL1128757, “Linear peptide ETA antagonists: rational design and practical derivatization of N-terminal amino- and imino-carbonylated tripeptide derivatives” (Bioorg Med Chem Lett, 1995).

Assay [1] has as its target T1, Endothelin-1 receptor (Sus scrofa, UniProt Q29010).
T1 sequence (Q29010 whole entry): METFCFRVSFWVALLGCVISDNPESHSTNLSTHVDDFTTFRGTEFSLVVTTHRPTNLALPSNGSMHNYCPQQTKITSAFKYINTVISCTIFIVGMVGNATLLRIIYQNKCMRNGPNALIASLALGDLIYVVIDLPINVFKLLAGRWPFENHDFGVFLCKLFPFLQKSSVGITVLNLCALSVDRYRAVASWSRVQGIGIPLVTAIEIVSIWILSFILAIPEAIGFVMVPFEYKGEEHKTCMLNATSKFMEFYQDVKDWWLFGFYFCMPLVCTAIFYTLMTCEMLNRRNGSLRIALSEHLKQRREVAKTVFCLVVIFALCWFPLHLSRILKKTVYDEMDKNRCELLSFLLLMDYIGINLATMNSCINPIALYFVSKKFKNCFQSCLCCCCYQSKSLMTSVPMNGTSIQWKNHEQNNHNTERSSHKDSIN
Description: Binding affinity against ETA receptor in porcine aortic smooth muscle membrane.

Assay [2] addresses T1, Endothelin-1 receptor. The assay is described as follows: Binding affinity determined against ETA receptor in porcine aortic smooth muscle membrane.
Assay [3] concerns the target T1, Endothelin-1 receptor. The assay is described as follows: Binding affinity against ETA receptor in porcine aortic smooth muscle membrane was determined.
Assay [4] concerns the target T1, Endothelin-1 receptor. Description: Antagonistic activity towards ET- l-induced contraction in porcine coronary arteries. In kind it is functional. The following applies: read-out: pA2 (converted).

The structures appear in SMILES notation.

The IC50 is the point on the concentration scale where inhibition reaches its midpoint.

Turning to `CC(C)C[C@H](NC(=O)OC(C)(C)C)C(=O)NC(Cc1c[nH]c2ccccc12)C(=O)NCCC(=O)O` (single isomer, unassigned), the half-maximal inhibitory concentration (IC50) on Endothelin-1 receptor [1] was found to be 0.42 µM. This compound also had an IC50 max at Endothelin-1 receptor [2] of 0.27 µM.
On Endothelin-1 receptor [3], `CC(C)CC(=O)N[C@@H](CC(C)C)C(=O)N[C@H](Cc1c[nH]c2ccccc12)C(=O)N[C@H](CC(=O)O)C(=O)O` returned a half-maximal inhibitory concentration (IC50) of 25 µM.
As for `CC(C)C[C@H](NC(=O)NCC(C)(C)C)C(=O)NC(Cc1c[nH]c2ccccc12)C(=O)NCCC(=O)O` (single isomer, unassigned), the IC50 max at Endothelin-1 receptor [2] came to 0.56 µM.
Same read-out and setting: then `CC(C)C[C@H](NC(=O)N1CCCCCCCCC1)C(=O)NC(Cc1c[nH]c2ccccc12)C(=O)NCCC(=O)O` (single isomer, unassigned), with 0.055 µM.
For `CC(C)C[C@H](NC(=O)CC1CCCC1)C(=O)NC(Cc1c[nH]c2ccccc12)C(=O)NCCC(=O)O` (single isomer, unassigned), the IC50 at Endothelin-1 receptor [1] was 0.97 µM. On Endothelin-1 receptor [2], this compound registered an IC50 max of 0.62 µM.
`CC(C)C[C@H](NC(=O)CC(C)(C)C)C(=O)NC(Cc1c[nH]c2ccccc12)C(=O)NCCC(=O)O` (single isomer, unassigned): the IC50 on Endothelin-1 receptor [1] was 6.7 µM.
In turn, `CC(C)C[C@H](NC(=O)N(C(C)C)C(C)C)C(=O)NC(Cc1c[nH]c2ccccc12)C(=O)NCCC(=O)O` (single isomer, unassigned) had an IC50 max on Endothelin-1 receptor [2] of 0.057 µM.
Same read-out and setting: then `CC(C)C[C@H](NC(=O)NC12CC3CC(CC(C3)C1)C2)C(=O)NC(Cc1c[nH]c2ccccc12)C(=O)NCCC(=O)O` (single isomer, unassigned), with 0.33 µM.
In the case of `Cc1cccc(NC(=O)N[C@@H](CC(C)C)C(=O)NC(Cc2c[nH]c3ccccc23)C(=O)NCCC(=O)O)c1` (single isomer, unassigned), the IC50 at Endothelin-1 receptor [1] stood at 2.1 µM.
Consider `CC(C)C[C@H](NC(=O)N1C(C)CCCC1C)C(=O)NC(Cc1c[nH]c2ccccc12)C(=O)NCCC(=O)O` (single isomer, unassigned), for which, at Endothelin-1 receptor [2], the IC50 max came out at 0.051 µM.
As to `CC(C)C[C@H](NC(=O)[C@H](N)C(C)C)C(=O)N[C@H](Cc1c[nH]c2ccccc12)C(=O)N[C@H](CC(=O)O)C(=O)O`, the IC50 on Endothelin-1 receptor [3] was found to be 32 µM.
On Endothelin-1 receptor [2], `CC(C)C[C@H](NC(=O)N1CCc2ccccc2C1)C(=O)NC(Cc1c[nH]c2ccccc12)C(=O)NCCC(=O)O` (single isomer, unassigned) displayed an IC50 max of 0.53 µM.
Still for that read-out and setting: then `CC(C)C[C@H](NC(=O)N1CCCCC1)C(=O)NC(Cc1c[nH]c2ccccc12)C(=O)NCCC(=O)O` (single isomer, unassigned), with 0.081 µM.
`CC(C)C[C@H](NC(=O)NC(C)(C)C)C(=O)NC(Cc1c[nH]c2ccccc12)C(=O)NCCC(=O)O` (single isomer, unassigned) came in with a half-maximal inhibitory concentration (IC50) at Endothelin-1 receptor [1] of 0.23 µM. Further, the IC50 max on Endothelin-1 receptor [2] was determined as 0.15 µM.
`CC(C)C[C@H](NC(=O)N1C(C)(C)CCCC1(C)C)C(=O)NC(Cc1c[nH]c2ccccc12)C(=O)NCCC(=O)O` (single isomer, unassigned) returned an IC50 max on Endothelin-1 receptor [2] of 0.19 µM.
Same read-out and setting: the same measure for `CC(C)C[C@H](NC(=O)N1CCCC1)C(=O)NC(Cc1c[nH]c2ccccc12)C(=O)NCCC(=O)O` (single isomer, unassigned): 0.31 µM.
`CC(C)CC(=O)N[C@@H](CC(C)C)C(=O)NC(Cc1c[nH]c2ccccc12)C(=O)NCCC(=O)O` (single isomer, unassigned): the IC50 on Endothelin-1 receptor [3] worked out at 3.9 µM.
Compound `CC(C)C[C@H](NC(=O)Cc1cccs1)C(=O)NC(Cc1c[nH]c2ccccc12)C(=O)NCCC(=O)O` (single isomer, unassigned) yielded an IC50 at Endothelin-1 receptor [1] of 0.54 µM. Moreover, the IC50 max on Endothelin-1 receptor [2] is 0.42 µM.
`CC(C)C[C@H](NC(=O)NCc1ccccc1)C(=O)NC(Cc1c[nH]c2ccccc12)C(=O)NCCC(=O)O` (single isomer, unassigned): the half-maximal inhibitory concentration (IC50) on Endothelin-1 receptor [1] was found to be 3.2 µM.
Still for that read-out and setting: the same measure for `CC(C)C[C@H](NC(=O)Nc1cccc(Cl)c1)C(=O)NC(Cc1c[nH]c2ccccc12)C(=O)NCCC(=O)O` (single isomer, unassigned): 2.1 µM.
Regarding `CC(C)C[C@H](NC(=O)N1CCC(C)CC1)C(=O)NC(Cc1c[nH]c2ccccc12)C(=O)NCCC(=O)O` (single isomer, unassigned), the IC50 max at Endothelin-1 receptor [2] stood at 0.58 µM.
As for `CC(C)C[C@H](NC(=O)N(CCO)C(C)(C)C)C(=O)NC(Cc1c[nH]c2ccccc12)C(=O)NCCC(=O)O` (single isomer, unassigned), the IC50 max at Endothelin-1 receptor [2] is 0.053 µM.
With `CC(C)C[C@H](NC(=O)N1CCCCCC1)C(=O)NC(Cc1c[nH]c2ccccc12)C(=O)NCCC(=O)O` (single isomer, unassigned), the Kb on Endothelin-1 receptor [4] was 0.0603 µM. The compound further displayed an IC50 max on Endothelin-1 receptor [2] of 0.061 µM.
